# Data as given in patent US20100298141A1, “SUBSTITUTED PYRIDINE N-OXIDE HERBICIDES” (E. I. DU PONT DE NEMOURS AND COMPANY, priority 2007, published 2010).
# Assays:
# morningglory = assay: Test A pre-/postemergence greenhouse test; assay type: in vivo, Ipomoea spp.; settings: for Plant response rating, Morningglory: 0 to 100 scale where 0 is no effect and 100 is complete control; for Morningglory plant response rating: 0 to 100 scale
# How it was run: (§1)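 Pre: directed soil spray on seeded loam/sand. Post: foliar spray, plants 2–10 cm, 1–2 leaf stage, applied concurrently. Vehicle: non-phytotoxic solvent + surfactant. Greenhouse ~10 d; visual injury rating vs untreated controls.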
# barnyardgrass [1] = assay: Test A pre-/postemergence greenhouse test; assay type: in vivo, Echinochloa crus-galli; settings: for Plant response rating, Barnyardgrass: 0 to 100 scale where 0 is no effect and 100 is complete control; for Barnyardgrass plant response rating: 0 to 100 scale
# How it was run: as §1
# barnyardgrass [2] = assay: Test C flooded paddy test; assay type: in vivo, Echinochloa crus-galli; settings: Flood
# How it was run: (§2)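 Compound was added to standing water 3 cm above soil, flood maintained, and plants held in a greenhouse before visual scoring against controls at 13 to 15 days.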
# wheat = assay: Test A pre-/postemergence greenhouse test; assay type: in vivo, Triticum aestivum; settings: for Plant response rating, Wheat: 0 to 100 scale where 0 is no effect and 100 is complete control; for Wheat plant response rating: 0 to 100 scale
# How it was run: as §1
# rice = assay: Test C flooded paddy test; assay type: in vivo, Oryza sativa; settings: Flood
# How it was run: as §2
# corn = assay: Test A pre-/postemergence greenhouse test; assay type: in vivo, Zea mays; settings: for Plant response rating, Corn: 0 to 100 scale where 0 is no effect and 100 is complete control; for Corn plant response rating: 0 to 100 scale
# How it was run: as §1
# giant foxtail = assay: Test A pre-/postemergence greenhouse test; assay type: in vivo, Setaria faberi; settings: for Plant response rating, Foxtail, Giant: 0 to 100 scale where 0 is no effect and 100 is complete control; for Foxtail, Giant plant response rating: 0 to 100 scale
# How it was run: as §1
# umbrella sedge = assay: Test C flooded paddy test; assay type: in vivo, Cyperus difformis; settings: Flood
# How it was run: as §2
# velvetleaf = assay: Test A pre-/postemergence greenhouse test; assay type: in vivo, Abutilon theophrasti; settings: for Plant response rating, Velvetleaf: 0 to 100 scale where 0 is no effect and 100 is complete control; for Velvetleaf plant response rating: 0 to 100 scale
# How it was run: as §1
# crabgrass = assay: Test A pre-/postemergence greenhouse test; assay type: in vivo, Digitaria sanguinalis; settings: for Plant response rating, Crabgrass, Large: 0 to 100 scale where 0 is no effect and 100 is complete control; for Crabgrass, Large plant response rating: 0 to 100 scale
# How it was run: as §1
# duck salad = assay: Test C flooded paddy test; assay type: in vivo, Heteranthera limosa; settings: Flood
# How it was run: as §2
# redroot pigweed = assay: Test A pre-/postemergence greenhouse test; assay type: in vivo, Amaranthus retroflexus; settings: for Plant response rating, Pigweed: 0 to 100 scale where 0 is no effect and 100 is complete control; for Pigweed plant response rating: 0 to 100 scale
# How it was run: as §1
# [3] = Postemergence, 500 g ai/ha, 0 is no effect, 100 is complete control
# [4] = Preemergence, 125 g ai/ha, 0 no effect, 100 complete control
# [5] = Preemergence, 500 g ai/ha, 0 no effect, 100 complete control
# [6] = 31 g ai/ha, scale 0 to 100 (0 no effect, 100 complete control)
# [7] = 62 g ai/ha, scale 0 to 100 (0 no effect, 100 complete control)
# [8] = 125 g ai/ha, scale 0 to 100, 0 no effect, 100 complete control, 13 to 15 days
# [9] = 250 g ai/ha, scale 0 to 100, 0 no effect, 100 complete control, 13 to 15 days
# [10] = 62 g ai/ha, scale 0 to 100, 0 no effect, 100 complete control, 13 to 15 days
smiles,measurement,setting,value
CC(C)c1cc[n+]([O-])c(S(=O)(=O)Cc2c(C(F)(F)F)nn(C)c2OC(F)F)c1 [Compound 110],"Plant response rating, Morningglory","morningglory; Postemergence, 125 g ai/ha",40
same,Morningglory plant response rating,morningglory; [3],100
same,Morningglory plant response rating,morningglory; [4],60
same,Morningglory plant response rating,morningglory; [5],100
same,"Plant response rating, Barnyardgrass","barnyardgrass [1]; Postemergence, 125 g ai/ha",60
same,Barnyardgrass plant response rating,barnyardgrass [1]; [3],80
same,Barnyardgrass plant response rating,barnyardgrass [1]; [4],90
same,Barnyardgrass plant response rating,barnyardgrass [1]; [5],100
same,"Plant response rating, Barnyardgrass",barnyardgrass [2]; [6],0
same,"Plant response rating, Barnyardgrass",barnyardgrass [2]; [7],0
same,"Plant response rating, Barnyardgrass",barnyardgrass [2]; [8],0
same,"Plant response rating, Barnyardgrass",barnyardgrass [2]; [9],0
same,"Plant response rating, Wheat","wheat; Postemergence, 125 g ai/ha",20
same,Wheat plant response rating,wheat; [3],60
same,Wheat plant response rating,wheat; [4],30
same,Wheat plant response rating,wheat; [5],70
same,"Plant response rating, Rice",rice; [6],0
same,"Plant response rating, Rice",rice; [7],0
same,"Plant response rating, Rice",rice; [8],0
same,"Plant response rating, Rice",rice; [9],0
same,"Plant response rating, Corn","corn; Postemergence, 125 g ai/ha",0
same,Corn plant response rating,corn; [3],60
same,Corn plant response rating,corn; [4],0
same,Corn plant response rating,corn; [5],60
same,"Plant response rating, Foxtail, Giant","giant foxtail; Postemergence, 125 g ai/ha",80
same,"Foxtail, Giant plant response rating",giant foxtail; [3],90
same,"Foxtail, Giant plant response rating",giant foxtail; [4],80
same,"Foxtail, Giant plant response rating",giant foxtail; [5],100
same,"Plant response rating, Sedge, Umbrella",umbrella sedge; [6],0
same,"Plant response rating, Sedge, Umbrella",umbrella sedge; [7],0
same,"Plant response rating, Sedge, Umbrella",umbrella sedge; [8],0
same,"Plant response rating, Sedge, Umbrella",umbrella sedge; [9],30
same,"Plant response rating, Velvetleaf","velvetleaf; Postemergence, 125 g ai/ha",60
same,Velvetleaf plant response rating,velvetleaf; [3],80
same,Velvetleaf plant response rating,velvetleaf; [4],50
same,Velvetleaf plant response rating,velvetleaf; [5],100
same,"Plant response rating, Crabgrass, Large","crabgrass; Postemergence, 125 g ai/ha",70
same,"Crabgrass, Large plant response rating",crabgrass; [3],90
same,"Crabgrass, Large plant response rating",crabgrass; [4],50
same,"Crabgrass, Large plant response rating",crabgrass; [5],100
same,"Plant response rating, Ducksalad",duck salad; [6],0
same,"Plant response rating, Ducksalad",duck salad; [7],0
same,"Plant response rating, Ducksalad",duck salad; [8],50
same,"Plant response rating, Ducksalad",duck salad; [9],75
same,"Plant response rating, Pigweed","redroot pigweed; Postemergence, 125 g ai/ha",70
same,Pigweed plant response rating,redroot pigweed; [3],80
same,Pigweed plant response rating,redroot pigweed; [4],80
same,Pigweed plant response rating,redroot pigweed; [5],100
O=S(=O)(Cc1c(C(F)(F)F)nn(CC(F)(F)F)c1Cl)c1ccc(Cl)c[n+]1[O-] [Compound 50],"Plant response rating, Morningglory","morningglory; Postemergence, 125 g ai/ha",30
same,Morningglory plant response rating,morningglory; [3],30
same,Morningglory plant response rating,morningglory; [4],30
same,"Plant response rating, Morningglory","morningglory; Preemergence, 500 g ai/ha",40
same,"Plant response rating, Barnyardgrass","barnyardgrass [1]; Postemergence, 125 g ai/ha",60
same,Barnyardgrass plant response rating,barnyardgrass [1]; [3],70
same,Barnyardgrass plant response rating,barnyardgrass [1]; [4],70
same,"Plant response rating, Barnyardgrass","barnyardgrass [1]; Preemergence, 500 g ai/ha",90
same,"Plant response rating, Barnyardgrass",barnyardgrass [2]; [10],0
same,"Plant response rating, Barnyardgrass",barnyardgrass [2]; [9],45
same,"Plant response rating, Wheat","wheat; Postemergence, 125 g ai/ha",0
same,Wheat plant response rating,wheat; [3],0
same,Wheat plant response rating,wheat; [4],0
same,"Plant response rating, Wheat","wheat; Preemergence, 500 g ai/ha",0
same,"Plant response rating, Rice",rice; [10],0
same,"Plant response rating, Rice",rice; [9],30
same,"Plant response rating, Corn","corn; Postemergence, 125 g ai/ha",0
same,Corn plant response rating,corn; [3],0
same,Corn plant response rating,corn; [4],0
same,"Plant response rating, Corn","corn; Preemergence, 500 g ai/ha",0
same,"Plant response rating, Foxtail, Giant","giant foxtail; Postemergence, 125 g ai/ha",70
same,"Foxtail, Giant plant response rating",giant foxtail; [3],70
same,"Foxtail, Giant plant response rating",giant foxtail; [4],80
same,"Plant response rating, Foxtail, Giant","giant foxtail; Preemergence, 500 g ai/ha",90
same,"Plant response rating, Sedge, Umbrella",umbrella sedge; [9],40
same,"Plant response rating, Velvetleaf","velvetleaf; Postemergence, 125 g ai/ha",0
same,Velvetleaf plant response rating,velvetleaf; [3],0
same,Velvetleaf plant response rating,velvetleaf; [4],0
same,"Plant response rating, Velvetleaf","velvetleaf; Preemergence, 500 g ai/ha",0
same,"Plant response rating, Crabgrass, Large","crabgrass; Postemergence, 125 g ai/ha",60
same,"Crabgrass, Large plant response rating",crabgrass; [3],70
same,"Crabgrass, Large plant response rating",crabgrass; [4],60
same,"Plant response rating, Crabgrass, Large","crabgrass; Preemergence, 500 g ai/ha",90
same,"Plant response rating, Ducksalad",duck salad; [10],0
same,"Plant response rating, Ducksalad",duck salad; [9],40
same,"Plant response rating, Pigweed","redroot pigweed; Postemergence, 125 g ai/ha",20
same,Pigweed plant response rating,redroot pigweed; [3],30
same,Pigweed plant response rating,redroot pigweed; [4],80
same,"Plant response rating, Pigweed","redroot pigweed; Preemergence, 500 g ai/ha",100
